Test results reported in US12478628B2, “Germ cell nuclear factor ligands and methods of use thereof” (Saint Louis University, priority 2020, dated 2025).

Tests used:
[1] = system: i3 neurons differentiated from induced pluripotent stem cells (iPSCs); assay: iPSC differentiation to i3 neurons, morphology; type: cell-based; parameters: neurite outgrowth: dose or concentration left out as unconfirmed; conditions: ligand treatment before and during differentiation
Description: (§1) iPSC Differentiation to Neurons. For growing neurons from iPSC cells, the method described by Femandopulle were employed (Femandopulle et al., 2018). Briefly, cells were treated with doxycycline to turn on expression of Neurogenin-2 (NGN2), which irreversibly sets these cells on the path of neuronal differentiation. The cells were treated with doxycycline for 3 days (changing media every day), and then re-plate the cells onto new plates coated with PLO. For each time point, 21 samples were prepared (DMSO and ligands 34 and 80 at different concentrations, in triplicate).
(§2) An overview of the experiment timeline is shown as well: • Day 0: Plate iPSC on matrigel-coated 12-well plates • Day 2: Treat cells −/+ ligands in iPSC media • Day 3: Refeed cells induction media +Doxycycline −/+ ligands to start neuronal differentiation (Day 0 of differentiation) • Day 4: Refeed cells induction media +Doxycycline −/+ ligands (Day 1 of differentiation) • Day 5: Refeed cells induction media +Doxycycline −/+ ligands (Day 2 of differentiation) • Day 6: Take pictures; Refeed cells neuronal media −/+ ligands (Day 3 of differentiation) • Day 7: Collect cells for RNA/qPCR (Day 4 of differentiation)

[2] = biological target: T1, GCNF LBD with SMRT ID2 corepressor peptide (Homo sapiens, UniProt Q15406); assay: FP ligand titration assay, SMRT ID2 peptide recruitment; type: biochemical; conditions: 20 μM GCNF LBD
T1 construct: Human GCNF (NR6A1) LBD (residues 248-480); made in house; host or cells: E. coli BL(21) DE3
Description: FP Assay. Fluorescence polarization (FP) assays were performed in triplicate on a 384-well Corning 3820 black opaque plate using a Biotek Synergy Neo2 HTS multimode microplate reader at excitation and emission wavelengths of 485 nm and 538 nm, respectively. Data were analyzed and plotted using GraphPad Prism as mean±SEM.
For the FP ligand titration assay, the aforementioned N-terminus fluorescein-tagged corepressor peptides were diluted to 500 nM from a 100 μM DMSO stock in the presence of 20 μM GCNF LBD and ligand concentration points 30, 20, 13, 9, 6, 4, 2.6, 1.7 and 0 μM in assay buffer containing 50 mM HEPES (pH 7.5), 50 mM KCl, 5 mM TCEP, 0.5 mM EDTA and 0.005% Tween20. The relative polarization was plotted against log of ligand concentration (μM) and the half maximal effective concentration (EC50) values were derived via sigmoidal fit.

[3] = system: i3 neurons differentiated from iPSCs; assay: qPCR of pluripotency and neuronal markers after iPSC differentiation; type: cell-based; conditions: qPCR upon ligand treatment
Description: qPCR using iPSC samples and differentiated neurons samples to make sure the primers worked. These primers include: • Housekeeping genes for normalization: CYCLO, 36B4, GAPDH • Stem cell markers: OCT4, SOX2, NANOG, REX1 • Neuronal markers: MAP2, MAPT, TUBB3, NCAM1
as §1, §2

SF-1 (NR5A1) LBD = biological target: T2, SF-1 (NR5A1) LBD (Homo sapiens, UniProt Q13285); assay: DSF specificity assay, SF-1; type: binding
T2 construct: human SF-1 LBD (residues 219-461); hexahistidine tag with 3C protease site; made in house; host or cells: E. coli BL(21) DE3
Description: (§3) Protein Expression and Purification. Human GCNF (NR6A1) LBD (residues 248-480) and mutants F284A/F361A, human LRH-1 (NR5A2) LBD (residues 291-541), human RXRα LBD (residues 223-462), human COUP-TF I LBD (residues 184-410) and human SF-1 LBD (residues 219-461) were subcloned in pET45b(+) plasmid (Novagen) were expressed in E. coli BL(21) DE3 cells in terrific broth with 0.1 mg/mL ampicillin as 3C protease-cleavable hexahistidine-tagged fusion proteins. The bacterial culture was grown at 37° C. to an optical density of 0.8 to 1.0 at 600 nm. Protein expression was induced by adding 1 mM IPTG and was allowed to proceed for 14 h at 22° C. […]
(§4) DSF Assay. […] A total of 450 compounds (Life Chemicals) previously selected from a nuclear-receptor-biased library targeting REV-ERB were analyzed. Thermal stability was assessed on a Quantstudio 6 instrument (Biosystems) by ramping the temperature from 25° C. to 95° C. at 0.05° C./s and protein melt shifts were subsequently quantified by Boltzmann-derived melting temperature (Tm) using the Protein Thermal Shift (ThermoFisher) software. […]

COUP-TF I LBD = biological target: T3, COUP-TF I LBD (Homo sapiens, UniProt P10589); assay: DSF specificity assay, COUP-TF I; type: binding
T3 construct: human COUP-TF I LBD (residues 184-410); hexahistidine tag with 3C protease site; made in house; host or cells: E. coli BL(21) DE3
T3 sequence (P10589 184-410): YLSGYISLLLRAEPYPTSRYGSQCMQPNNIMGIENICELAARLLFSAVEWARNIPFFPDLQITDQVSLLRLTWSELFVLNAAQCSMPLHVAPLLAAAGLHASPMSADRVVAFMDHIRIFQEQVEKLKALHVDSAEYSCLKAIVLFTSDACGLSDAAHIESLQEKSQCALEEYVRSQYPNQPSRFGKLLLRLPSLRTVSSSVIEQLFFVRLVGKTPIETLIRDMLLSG
Description: as §3, §4

T1 sequence (Q15406 248-480): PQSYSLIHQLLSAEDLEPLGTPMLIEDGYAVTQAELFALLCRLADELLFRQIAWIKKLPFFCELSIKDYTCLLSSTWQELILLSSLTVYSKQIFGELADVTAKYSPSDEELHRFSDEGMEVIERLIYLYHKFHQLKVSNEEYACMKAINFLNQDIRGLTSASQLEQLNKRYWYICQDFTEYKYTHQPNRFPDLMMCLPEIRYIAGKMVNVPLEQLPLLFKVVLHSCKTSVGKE
T1 sequence (Q9Y618 2332-2354 partner limits assumed): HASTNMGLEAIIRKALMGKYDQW
T2 sequence (Q13285 219-461): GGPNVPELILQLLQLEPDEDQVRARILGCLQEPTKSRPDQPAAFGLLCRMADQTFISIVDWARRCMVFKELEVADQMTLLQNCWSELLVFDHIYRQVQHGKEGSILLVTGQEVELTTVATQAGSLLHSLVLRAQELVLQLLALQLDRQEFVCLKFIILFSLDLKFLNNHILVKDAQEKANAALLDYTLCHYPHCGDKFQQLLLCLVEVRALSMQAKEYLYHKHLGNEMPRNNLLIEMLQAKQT

SMILES	area of cell bodies [1]	neurite branching [1]	neurite outgrowth [1]	effect on recruitment of SMRT ID2 to GCNF [2]	expression of pluripotency marker Sox2 [3]	change of Tm of SF-1 LBD (SF-1 (NR5A1) LBD)	change of Tm of COUP-TF I LBD (COUP-TF I LBD)	expression of neuronal marker MAPT [3]
Cc1ccc(-n2ncc3c(N4CCOCC4)nc(NCc4ccco4)nc32)cc1 [Ligand 34, N-[(furan-2-yl)methyl]-1-(4-methylphenyl)-4-(morpholin-4-yl)-1H-pyrazolo[3,4-d]pyrimidin-6-amine]	remain unchanged	more extensive branching	significant increase of neurite outgrowth	increased the recruitment	substantially decreased	did not significantly change	did not significantly change	–
O=C(Cn1cc(S(=O)(=O)c2ccccc2)c2ccccc21)N1CCc2ccccc21 [Ligand 80, 2-[3-(benzenesulfonyl)-1H-indol-1-yl]-1-(2,3-dihydro-1H-indol-1-yl)ethan-1-one]	remain unchanged	more extensive branching	significant increase of neurite outgrowth	but not ligand 80, increased the recruitment of SMRT ID2	substantially decreased	did not significantly change	did not significantly change	substantially increased
